According to US7238701B2, “Substituted tetrahydrobenzothienopyrimidinamine compounds useful for treating hyper-proliferative disorders” (Bayer Pharmaceuticals Corporation, priority 2003, dated 2007):

Assays:
[1] = test system: A431cells (human epidermoid carcinoma); test: In vitro tumor cell proliferation assay (Cell Titer-Glo luminescent cell viability), A431 cells; assay type: cell-based; details: A-431, 72 h, 72 hours drug exposure, 10% Fetal Bovine Serum, ATP luminescence readout, read-out: IC50 (50% inhibition of cell proliferation)
Method in brief: (§1)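 ATP luminescence (CellTiter-Glo) measured proliferation after 72 h compound exposure at 37 °C, giving IC50 values. Serial dilutions spanning 64 pM–100 μM in 0.1% DMSO were applied one day after plating 2.5×10^3 cells/well in RPMI plus 10% fetal bovine serum.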

[2] = test system: BT474 (human breast carcinoma); test: In vitro tumor cell proliferation assay (Cell Titer-Glo luminescent cell viability), BT474 cells; assay type: cell-based; details: BT-474, 72 hours drug exposure, 10% Fetal Bovine Serum, ATP luminescence readout, read-out: IC50 (50% inhibition of cell proliferation)
Method in brief: as §1

Row | Compound | IC50 [1] | IC50 [2]
1 | Fc1cccc(COc2ccc(Nc3ncnc4sc5c(c34)CCC(CCBr)C5)cc2Cl)c1 (stereo not shown) [Example 138, [7-(2-Bromo-ethyl)-5,6,7,8-tetrahydro-benzo[4,5]thieno[2,3-d]pyrimidin-4-yl]-[3-chloro-4-(3-fluoro-benzyloxy)-phenyl]-amine] | < 50 µM | < 5 µM
2 | Fc1cccc(COc2ccc(Nc3ncnc4sc5c(c34)CCC(CCN3CCOCC3)C5)cc2Cl)c1 (stereo not shown) [Example 139, N-{3-chloro-4-[(3-fluorobenzyl)oxy]phenyl}-7-(2-morpholin-4-ylethyl)-5,6,7,8-tetrahydro[1]benzothieno[2,3-d]pyrimidin-4-amine] | < 5 µM | < 5 µM
3 | CN(C)[C@H]1CCN(CCC2CCc3c(sc4ncnc(Nc5ccc(OCc6cccc(F)c6)c(Cl)c5)c34)C2)C1 (stereo partly drawn) [Example 140, N-{3-chloro-4-[(3-fluorobenzyl)oxy]phenyl}-7-{2-[(3S)-3-(dimethylamino)pyrrolidin-1-yl]ethyl}-5,6,7,8-tetrahydro[1]benzothieno[2,3-d]pyrimidin-4-amine] | < 5 µM | < 5 µM
4 | CN(C)[C@H]1CCN(CCC2CCc3c(sc4ncnc(Nc5ccc(OCc6ccccn6)c(Cl)c5)c34)C2)C1 (stereo partly drawn) [Example 141, N-[3-chloro-4-(pyridin-2-ylmethoxy)phenyl]-7-{2-[(3S)-3-(dimethylamino)pyrrolidin-1-yl]ethyl}-5,6,7,8-tetrahydro[1]benzothieno[2,3-d]pyrimidin-4-amine] | < 5 µM | < 5 µM
5 | COCCNCCC1CCc2c(sc3ncnc(Nc4ccc(OCc5cccc(F)c5)c(Cl)c4)c23)C1 (stereo not shown) [Example 142, N-{3-chloro-4-[(3-fluorobenzyl)oxy]phenyl}-7-{2-[(2-methoxyethyl)amino]ethyl}-5,6,7,8-tetrahydro[1]benzothieno[2,3-d]pyrimidin-4-amine] | < 5 µM | < 5 µM
6 | CCOC(=O)CC1CCc2c(sc3ncnc(Nc4ccc(OCc5ccc(F)cc5)c(Cl)c4)c23)C1 (stereo not shown) [Example 143, ethyl [4-({3-chloro-4-[(4-fluorobenzyl)oxy]phenyl}amino)-5,6,7,8-tetrahydro[1]benzothieno[2,3-d]pyrimidin-7-yl]acetate] | < 50 µM | < 5 µM
7 | O=C(CC1CCc2c(sc3ncnc(Nc4ccc(OCc5ccc(F)cc5)c(Cl)c4)c23)C1)N1CCOCC1 (stereo not shown) [Example 144, N-{3-chloro-4-[(4-fluorobenzyl)oxy]phenyl}-7-(2-morpholin-4-yl-2-oxoethyl)-5,6,7,8-tetrahydro[1]benzothieno[2,3-d]pyrimidin-4-amine] | < 50 µM | < 50 µM
8 | COCCNC(=O)CC1CCc2c(sc3ncnc(Nc4ccc(OCc5ccc(F)cc5)c(Cl)c4)c23)C1 (stereo not shown) [Example 146, 2-[4-({3-chloro-4-[(4-fluorobenzyl)oxy]phenyl}amino)-5,6,7,8-tetrahydro[1]benzothieno[2,3-d]pyrimidin-7-yl]-N-(2-methoxyethyl)acetamide] | < 50 µM | < 50 µM
9 | CS(=O)(=O)CCNC(=O)CC1CCc2c(sc3ncnc(Nc4ccc(OCc5ccc(F)cc5)c(Cl)c4)c23)C1 (stereo not shown) [Example 147, 2-[4-({3-chloro-4-[(4-fluorobenzyl)oxy]phenyl}amino)-5,6,7,8-tetrahydro[1]benzothieno[2,3-d]pyrimidin-7-yl]-N-[2-(methylsulfonyl)ethyl]acetamide] | < 50 µM | < 50 µM
10 | CN(C)[C@H]1CCN(C(=O)CC2CCc3c(sc4ncnc(Nc5ccc(OCc6ccc(F)cc6)c(Cl)c5)c34)C2)C1 (stereo partly drawn) [Example 148, N-{3-chloro-4-[(4-fluorobenzyl)oxy]phenyl}-7-{2-[(3S)-3-(dimethylamino)pyrrolidin-1-yl]-2-oxoethyl}-5,6,7,8-tetrahydro[1]benzothieno[2,3-d]pyrimidin-4-amine] | < 5 µM | < 5 µM
11 | O=C(CC1CCc2c(sc3ncnc(Nc4ccc(OCc5ccc(F)cc5)c(Cl)c4)c23)C1)N1CCCC1 (stereo not shown) [Example 149, N-{3-chloro-4-[(4-fluorobenzyl)oxy]phenyl}-7-(2-oxo-2-pyrrolidin-1-ylethyl)-5,6,7,8-tetrahydro[1]benzothieno[2,3-d]pyrimidin-4-amine] | < 50 µM | < 50 µM
12 | CN1CCN(C(=O)CC2CCc3c(sc4ncnc(Nc5ccc(OCc6ccc(F)cc6)c(Cl)c5)c34)C2)CC1 (stereo not shown) [Example 150, N-{3-chloro-4-[(4-fluorobenzyl)oxy]phenyl}-7-[2-(4-methylpiperazin-1-yl)-2-oxoethyl]-5,6,7,8-tetrahydro[1]benzothieno[2,3-d]pyrimidin-4-amine] | < 5 µM | < 5 µM
13 | COCCN(C)C(=O)CC1CCc2c(sc3ncnc(Nc4ccc(OCc5ccc(F)cc5)c(Cl)c4)c23)C1 (stereo not shown) [Example 151, 2-[4-({3-chloro-4-[(4-fluorobenzyl)oxy]phenyl}amino)-5,6,7,8-tetrahydro[1]benzothieno[2,3-d]pyrimidin-7-yl]-N-(2-methoxyethyl)-N-methylacetamide] | < 50 µM | < 50 µM
14 | COCCN(C)CCC1CCc2c(sc3ncnc(Nc4ccc(OCc5ccc(F)cc5)c(Cl)c4)c23)C1 (stereo not shown) [Example 152, N-{3-chloro-4-[(4-fluorobenzyl)oxy]phenyl}-7-{2-[(2-methoxyethyl)(methyl)amino]ethyl}-5,6,7,8-tetrahydro[1]benzothieno[2,3-d]pyrimidin-4-amine] | < 5 µM | < 5 µM
15 | Fc1ccc(COc2ccc(Nc3ncnc4sc5c(c34)CCC(CCN3CCCC3)C5)cc2Cl)cc1 (stereo not shown) [Example 153, N-{3-chloro-4-[(4-fluorobenzyl)oxy]phenyl}-7-(2-pyrrolidin-1-ylethyl)-5,6,7,8-tetrahydro[1]benzothieno[2,3-d]pyrimidin-4-amine] | < 5 µM | < 5 µM
16 | CN1CCN(CCC2CCc3c(sc4ncnc(Nc5ccc(OCc6ccc(F)cc6)c(Cl)c5)c34)C2)CC1 (stereo not shown) [Example 154, N-{3-chloro-4-[(4-fluorobenzyl)oxy]phenyl}-7-[2-(4-methylpiperazin-1-yl)ethyl]-5,6,7,8-tetrahydro[1]benzothieno[2,3-d]pyrimidin-4-amine] | < 5 µM | < 5 µM
17 | CN(C)[C@H]1CCN(CCC2CCc3c(sc4ncnc(Nc5ccc(OCc6ccc(F)cc6)c(Cl)c5)c34)C2)C1 (stereo partly drawn) [Example 157, N-{3-chloro-4-[(4-fluorobenzyl)oxy]phenyl}-7-{2-[(3S)-3-(dimethylamino)pyrrolidin-1-yl]ethyl}-5,6,7,8-tetrahydro[1]benzothieno[2,3-d]pyrimidin-4-amine] | < 5 µM | < 5 µM
18 | CN1CCN(CCC2CCc3c(sc4ncnc(Nc5ccc(OCc6cccc(F)c6)c(Cl)c5)c34)C2)CC1 (stereo not shown) [Example 158, N-{3-chloro-4-[(3-fluorobenzyl)oxy]phenyl}-7-[2-(4-methylpiperazin-1-yl)ethyl]-5,6,7,8-tetrahydro[1]benzothieno[2,3-d]pyrimidin-4-amine] | < 5 µM | < 5 µM
19 | COCCN(C)CCC1CCc2c(sc3ncnc(Nc4ccc(OCc5cccc(F)c5)c(Cl)c4)c23)C1 (stereo not shown) [Example 159, N-{3-chloro-4-[(3-fluorobenzyl)oxy]phenyl}-7-{2-[(2-methoxyethyl)(methyl)amino]ethyl}-5,6,7,8-tetrahydro[1]benzothieno[2,3-d]pyrimidin-4-amine] | < 5 µM | < 5 µM
20 | CN(C)[C@@H]1CCN(CCC2CCc3c(sc4ncnc(Nc5ccc(OCc6cccc(F)c6)c(Cl)c5)c34)C2)C1 (stereo partly shown) [Example 160] | < 5 µM | < 5 µM
